Results reported in patent US10266544B2, “Aryl substituted aminomethyl spectinomycin analogs as antibacterial agents” (ST. JUDE CHILDREN'S RESEARCH HOSPITAL, INC., priority 2013, dated 2019).
Structures can show the parent of a compound that is named as a salt. Where two headings read alike, the source gives them in different places.

Key:
Assay type in all cases: cell-based
Moraxella catarrhalis = experiment: MIC determination (Table 6)
[1] = system: Neisseria meningitides (ATCC 13077); experiment: Disc diffusion assay; details: ATCC13077, 4 μg per disc, read-out: Zone of inhibition N.m.
[2] = system: Enterococcus faecalis (ATCC 33186); experiment: MIC determination, microbroth dilution
[3] = system: MRSA, Staphylococcus aureus (NRS70); experiment: MIC determination, microbroth dilution; details: read-out: MIC MRSA
[4] = system: acinetobacter baumannii (ATCC 19606); experiment: MIC determination, microbroth dilution; details: ATCC19606
[5] = system: Neisseria gonorrhoeae (ATCC 49226); experiment: Agar MIC determination (Alamar Blue); details: ATCC49226, agar MIC, read-out: MIC N.g.
Listeria monocytogenes = experiment: MIC determination (Table 6)
[6] = system: Burkholderia cepacia (ATCC 25416); experiment: MIC determination, microbroth dilution; details: Burkholderia cepacia
[7] = system: M. tuberculosis clinical isolates; experiment: microbe, parasite or virus in culture; details: Mycobacterium tuberculosis, H37RV, read-out: MIC H37Rv
[8] = system: Legionella pneumophila (ATCC 33153); experiment: microbe, parasite or virus in culture; details: ATCC33153, 72 h, read-out: Zone of inhibition L.p.
Bacillus anthracis = experiment: microbe, parasite or virus in culture; details: read-out: MIC B.a.
[9] = system: Streptococcus pyogenes (ATCC 700294); experiment: MIC determination, microbroth dilution; details: ATCC700294; Streptococcus pyogenes (ATCC 700294); read-out: MIC S. py.
[10] = system: Bacillus anthracis, Sterne 34F2; experiment: microbe, parasite or virus in culture; details: STERNE34F2, read-out: MIC B.a.
[11] = system: Staphylococcus aureus (ATCC 29213); experiment: MIC determination, microbroth dilution; details: ATCC29213; Staphylococcus aureus (ATCC 29213); read-out: MIC S.a.
[12] = system: Proteus mirabilis (ATCC 25933); experiment: MIC determination, microbroth dilution; details: ATCC25933
[13] = system: Escherichia coli (ATCC 700926); experiment: MIC determination, microbroth dilution
[14] = system: Pseudomonas aeruginosa (PA01); experiment: MIC determination, microbroth dilution
[15] = system: Klebsiella pneumoniae (ATCC 33495); experiment: MIC determination, microbroth dilution; details: ATCC33495
[16] = system: Streptococcus pneumoniae (R6); experiment: MIC determination, microbroth dilution; details: Streptococcus pneumoniae (R6); read-out: MIC S. pn.
E. coli K12 ΔtolC = experiment: microbe, parasite or virus in culture; details: Escherichia coli, read-out: MIC E.c. Δtolc
[17] = system: Stenotrophomonas maltophilia (ATCC 13637); experiment: MIC determination, microbroth dilution; details: ATCC13637; Stenotrophomonas maltophilia (ATCC 13637); read-out: MIC S.m.
[18] = system: Proteus vulgaris (ATCC 33420); experiment: MIC determination, microbroth dilution; details: ATCC33420
[19] = system: Bacillus subtilis (ATCC 23857); experiment: MIC determination, microbroth dilution; details: ATCC23857; Bacillus subtilis (ATCC 23857); read-out: MIC B.s.
[20] = system: Haemophilus influenza (ATCC 49247); experiment: microbe, parasite or virus in culture; details: ATCC49247; Haemophilus influenza; 4 μg per disc; range of at least two experiments; read-out: Zone of inhibition H.i.
[21] = system: Neisseria gonorrhoeae (ATCC 49226); experiment: Disc diffusion assay; details: ATCC49226, 4 μg per disc, read-out: Zone of inhibition N.g.
[22] = ATCC25416, read-out: MIC B.c., Burkholderia cepacia (ATCC 25416)
[23] = ATCC25416, read-out: MIC B.c., Burkholderia cepacia, Table 6
[24] = ATCC700926, Escherichia coli (ATCC 700926), read-out: MIC E.c.
[25] = ATCC33186, Enterococcus faecalis (ATCC 33186), read-out: MIC E.f.

CN[C@@H]1[C@H](O)[C@H](NC)[C@H]2O[C@]3(O)[C@H](O[C@@H]2[C@H]1O)O[C@H](C)C[C@@]3(O)CNCc1ccc(Cl)cc1 [compound 18, 3′-(R)-3′-(4-Chlorobenzylaminomethyl)dihydrospectinomycin Trihydrobromide]
MIC (Moraxella catarrhalis): 0.8 µg/mL | zone of inhibition at 4 µg/disc [1]: 16 to 18 mm | MIC ([2]; Enterococcus faecalis, ATCC33186, read-out: MIC E.f.): 6.3 to 12.5 µg/mL | MIC ([3]; Staphylococcus aureus): 12.5 to 25 µg/mL | MIC [4]: > 200 µg/mL | MIC [5]: 25 µg/mL | MIC (Listeria monocytogenes): 6.3 µg/mL | MIC [6, 22]: 100 to 200 µg/mL | MIC [6, 23]: 100 to 200 µg/mL | MIC [7]: 12.5 µg/mL | zone of inhibition at 4 µg/disc [8]: 21 mm | MIC (Bacillus anthracis): 25 µg/mL | MIC [9]: 0.8 to 1.6 µg/mL | MIC [10]: 25 µg/mL | MIC [11]: 25 to 50 µg/mL | MIC [12]: 200 µg/mL | MIC [13, 24]: 12.5 to 25 µg/mL | MIC [14]: 200 µg/mL | MIC [15]: 200 µg/mL | MIC [16]: 1.6 to 3.1 µg/mL | MIC (E. coli K12 ΔtolC): 3.1 to 6.3 µg/mL | MIC [17]: 25 µg/mL | MIC [18]: 100 to 200 µg/mL | MIC [19]: 3.1 µg/mL | zone of inhibition at 4 µg/disc [20]: 15 to 16 mm

CN[C@@H]1[C@H](O)[C@H](NC)[C@H]2O[C@]3(O)[C@H](O[C@@H]2[C@H]1O)O[C@H](C)C[C@]3(O)CNCc1ccc(F)cc1 [compound 28, 3′-(S)-3′-[(4-fluoro)benzylaminomethyl)]dihydrospectinomycin Trihydrochloride]
zone of inhibition at 4 µg/disc [1]: 0 mm | MIC [2, 25]: > 200 µg/mL | MIC ([3]; Staphylococcus aureus (NRS70)): > 200 µg/mL | MIC [4]: > 200 µg/mL | MIC [5]: 200 µg/mL | MIC [6, 22]: > 200 µg/mL | MIC [7]: 200 µg/mL | zone of inhibition at 4 µg/disc [8]: 0 mm | MIC [9]: 100 to 200 µg/mL | MIC [10]: > 200 µg/mL | MIC [11]: > 200 µg/mL | MIC [13, 24]: > 200 µg/mL | MIC [15]: > 200 µg/mL | MIC [16]: ≥ 200 µg/mL | MIC (E. coli K12 ΔtolC): ≥ 200 µg/mL | zone of inhibition at 4 µg/disc [20]: 0 mm

CN[C@@H]1[C@H](O)[C@H](NC)[C@H]2O[C@]3(O)[C@H](O[C@@H]2[C@H]1O)O[C@H](C)C[C@]3(O)CNCc1ccc(OC(F)(F)F)cc1 (stereo in doubt) [compound 26, 3′-(S)-3′-[(4-trifluoromethoxyl)benzylaminomethyl)]dihydrospectinomycin Trihydrochloride]
MIC [2, 25]: > 200 µg/mL | MIC ([3]; Staphylococcus aureus (NRS70)): > 200 µg/mL | MIC [4]: 50 to 100 µg/mL | MIC [5]: 50 to 100 µg/mL | MIC [6, 22]: > 200 µg/mL | MIC [7]: 100 µg/mL | zone of inhibition at 4 µg/disc [8]: 8 mm | MIC [9]: > 200 µg/mL | MIC [10]: ≥ 200 µg/mL | MIC [11]: ≥ 200 µg/mL | MIC [12]: > 200 µg/mL | MIC ([13]; Escherichia coli, ATCC700926, read-out: MIC E.c.): 50 µg/mL | MIC [14]: > 200 µg/mL | MIC [15]: 100 µg/mL | MIC [16]: > 200 µg/mL | MIC (E. coli K12 ΔtolC): 6.3 µg/mL | MIC [17]: 50 µg/mL | MIC [18]: > 200 µg/mL | MIC [19]: 100 to 200 µg/mL

CN[C@@H]1[C@H](O)[C@H](NC)[C@H]2O[C@]3(O)[C@H](O[C@@H]2[C@H]1O)O[C@H](C)C[C@@]3(O)CNCc1cccc(C)n1 [compound 22, 3′-(A)-3′-[(6-Methyl)-2-pyridinylmethylamino)dihydrospectinomycin Tetrahydrobromide]
MIC (Moraxella catarrhalis): 3.1 µg/mL | zone of inhibition at 4 µg/disc [1]: 14 mm | MIC [2, 25]: 25 µg/mL | MIC ([3]; Staphylococcus aureus (NRS70)): ≥ 200 µg/mL | MIC [4]: > 200 µg/mL | MIC [5]: 100 µg/mL | MIC (Listeria monocytogenes): 12.5 µg/mL | MIC [6, 22]: > 200 µg/mL | MIC [6, 23]: > 200 µg/mL | MIC [7]: 6.3 µg/mL | MIC (Bacillus anthracis): 50 µg/mL | MIC [9]: 6.3 µg/mL | MIC [10]: 50 µg/mL | MIC [11]: 50 to 100 µg/mL | MIC [12]: > 200 µg/mL | MIC [13, 24]: 100 to 200 µg/mL | MIC [14]: > 200 µg/mL | MIC [15]: > 200 µg/mL | MIC [16]: 6.3 to 12.5 µg/mL | zone of inhibition at 4 µg/disc [21]: 11 mm | MIC (E. coli K12 ΔtolC): 25 µg/mL | MIC [17]: 12.5 µg/mL | MIC [18]: > 200 µg/mL | MIC [19]: 50 µg/mL | zone of inhibition at 4 µg/disc [20]: 10 mm
